Where two headings read alike, the source gives them in different places.
Legend:
[1] = target: T1, human cannabinoid receptor type 2 (Homo sapiens, UniProt P34972); assay: Human CB2 Radioligand Binding Assay; conditions: membranes from stably transfected CHO CB2 cells
T1 construct: expressed in transfected cells; membrane preparation
How it was run: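 Filtration competition binding on membranes from CHO cells stably expressing human CB2, with [3H]CP-55,940 at its lot-specific Kd, in 50 mM Tris-HCl pH 7.4, EGTA, MgCl2, 5 mg/ml BSA, 1% DMSO; 90 min at 30° C. Compounds at 10 uM single point or dose-response; bound radioactivity by scintillation, 100 nM CP-55,940 as 100% efficacy.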

[2] = target: T2, human cannabinoid receptor type 1 (Homo sapiens, UniProt P21554); assay: Human CB1 Radioligand Binding Assay (basis of selectivity, CB2 vs. CB1); conditions: CB1: HEK 293 EBNA cells expressing human CB1; CB2: CHO CB2 membranes
T2 construct: purchased Perkin Elmer RBHCB1M; host or cells: HEK 293 EBNA cells
Protocol: 2. Human CB1 Radioligand Binding Assay
The incubation buffer was composed of 50 mM Tris-HCl pH 7.4, 2.5 mM EDTA, 5 mM MgCl2, 5.0 mg/ml fatty acid free BSA and the wash buffer was composed of 50 mM Tris-HCl pH 7.4, 2.5 mM EDTA, 5 mM MgCl2, 0.5 mg/ml fatty acid free BSA.

[3] = CB2 Ligand Binding Asssay EC50, competition with [3H] CP-55,940
[4] = competition with [3H] CP-55,940, read-out: CB2 Ligand Binding Asssay EC50

T2 sequence (P21554 whole entry): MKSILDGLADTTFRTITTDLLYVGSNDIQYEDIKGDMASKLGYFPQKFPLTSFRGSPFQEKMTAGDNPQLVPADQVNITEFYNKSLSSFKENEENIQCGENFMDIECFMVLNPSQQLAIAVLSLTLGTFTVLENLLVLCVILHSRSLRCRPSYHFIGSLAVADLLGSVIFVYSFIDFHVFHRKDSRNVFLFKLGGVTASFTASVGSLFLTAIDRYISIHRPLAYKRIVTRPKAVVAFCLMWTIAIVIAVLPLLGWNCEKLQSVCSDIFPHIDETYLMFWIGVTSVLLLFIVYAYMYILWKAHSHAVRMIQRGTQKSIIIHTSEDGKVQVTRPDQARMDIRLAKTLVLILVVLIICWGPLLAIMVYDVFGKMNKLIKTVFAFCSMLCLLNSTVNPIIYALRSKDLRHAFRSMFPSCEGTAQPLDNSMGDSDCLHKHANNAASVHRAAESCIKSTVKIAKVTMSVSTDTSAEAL
T1 sequence (P34972 whole entry): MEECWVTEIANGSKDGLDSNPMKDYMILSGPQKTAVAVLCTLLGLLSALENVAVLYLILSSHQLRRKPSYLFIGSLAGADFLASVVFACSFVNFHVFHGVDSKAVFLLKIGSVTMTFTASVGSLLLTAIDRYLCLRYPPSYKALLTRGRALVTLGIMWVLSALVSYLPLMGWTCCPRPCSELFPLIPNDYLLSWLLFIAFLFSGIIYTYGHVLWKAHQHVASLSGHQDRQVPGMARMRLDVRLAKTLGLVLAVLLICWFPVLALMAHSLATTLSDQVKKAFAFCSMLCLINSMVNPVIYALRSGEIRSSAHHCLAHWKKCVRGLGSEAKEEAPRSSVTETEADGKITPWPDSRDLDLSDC

| Selectivity, CB2 vs. CB1 [2] | EC50 [1, 4] [nM] | SMILES | EC50 [1, 3] [nM] |
| --- | --- | --- | --- |
| − (− indicates ≦ 10−fold) | > 1000 | CC(=O)N1CCN(c2nc(-c3ccc(C(C)(C)C)cc3)nc3ccc(Cl)cc23)CC1 [Example 277, 1-(4-(2-(4-tert-Butylphenyl)-6-chloroquinazolin-4-yl)piperazin-1-yl)ethanone] | – |
| − (− indicates ≦ 10−fold) | > 1000 | CCOc1ccc(Nc2nc(-c3ccccc3Cl)nc3ccccc23)cc1 [Example 332, 2-(2-Chlorophenyl)-N-(4-ethoxyphenyl)quinazolin-4-amine] | – |
| − (− indicates ≦ 10−fold) | > 1000 | COC(=O)c1ccc2nc(-c3ccccc3Cl)nc(N3CCc4cc(OC)ccc43)c2c1 [Example 330, Methyl 2-(2-chlorophenyl)-4-(5-methoxyindolin-1-yl)quinazoline-6-carboxylate] | – |
| − (− indicates ≦ 10−fold) | > 1000 | CC(=O)N1CCN(c2nc(-c3ccc(Cl)cc3)nc3ccc(Cl)cc23)CC1 [Example 253, 1-(4-(6-Chloro-2-(4-chlorophenyl)quinazolin-4-yl)piperazin-1-yl)ethanone] | – |
| + (+ indicates > 10−fold) | > 1000 | O=S(=O)(NCc1nc(N2CCCC2)c2ccccc2n1)c1ccc2ccccc2c1 [Example 299, N-((4-(Pyrrolidin-1-yl)quinazolin-2-yl)methyl)naphthalene-2-sulfonamide] | – |
| − (− indicates ≦ 10−fold) | > 1000 | Clc1ccccc1-c1nc(NCCCn2ccnc2)c2ccccc2n1 [Example 258, N-(3-(1H-Imidazol-1-yl)propyl)-2-(2-chlorophenyl)quinazolin-4-amine] | – |
| + (+ indicates > 10−fold) | > 1000 | CCOC(=O)N1CCN(c2nc(-c3ccccc3F)nc3ccc(OC)cc23)CC1 [Example 275, Ethyl 4-(2-(2-fluorophenyl)-6-methoxyquinazolin-4-yl)piperazine-1-carboxylate] | – |
| − (− indicates ≦ 10−fold) | > 1000 | CCCS(=O)(=O)N1CCN(c2nc(-c3ccccc3Cl)nc3cccc(Cl)c23)CC1 [Example 285, 5-Chloro-2-(2-chlorophenyl)-4-(4-(propylsulfonyl)piperazin-1-yl)quinazoline] | – |
| − (− indicates ≦ 10−fold) | < 1000 | Fc1ccccc1-c1nc(N2CCCC2)c2cc(Cl)ccc2n1 [Example 273, 6-Chloro-2-(2-fluorophenyl)-4-(pyrrolidin-1-yl)quinazoline] | – |
| − (− indicates ≦ 10−fold) | > 1000 | O=S(=O)(NCc1nc(N2CCOCC2)c2ccccc2n1)c1ccc(Cl)cc1Cl [Example 294, 2,4-Dichloro-N-((4-morpholinoquinazolin-2-yl)methyl)benzenesulfonamide] | – |
| − (− indicates ≦ 10−fold) | < 1000 | CC(=O)N1CCN(c2nc(-c3ccccc3F)nc3ccc(Cl)cc23)CC1 [Example 271, 1-(4-(6-Chloro-2-(2-fluorophenyl)quinazolin-4-yl)piperazin-1-yl)ethanone] | – |

The next lines start with the molecule.

| SMILES | Selectivity, CB2 vs. CB1 [2] | EC50 [1, 4] [nM] | EC50 [1, 3] [nM] |
| --- | --- | --- | --- |
| CCCNC(=O)N1CCN(c2nc(-c3ccccc3Cl)nc3ccccc23)CC1 [Example 91, 4-(2-(2-Chlorophenyl)quinazolin-4-yl)-N-propylpiperazine-1-carboxamide] | − (− indicates ≦ 10−fold) | – | > 1000 |
| CC(C)(C)NC(=O)N1CCN(c2nc(-c3ccccc3Cl)nc3ccccc23)CC1 [Example 89, N-tert-Butyl-4-(2-(2-chlorophenyl)quinazolin-4-yl)piperazine-1-carboxamide] | − (− indicates ≦ 10−fold) | > 1000 | – |
| CCOC(=O)N1CCN(c2nc(C3CCCCC3)nc3ccc(OC)cc23)CC1 [Example 218, Ethyl 4-(2-cyclohexyl-6-methoxyquinazolin-4-yl)piperazine-1-carboxylate] | − (− indicates ≦ 10−fold) | > 1000 | – |
| CC(=O)N1CCN(c2nc(-c3ccccc3Cl)nc3cccc(F)c23)CC1 [Example 246, 1-(4-(2-(2-Chlorophenyl)-5-fluoroquinazolin-4-yl)piperazin-1-yl)ethanone] | + (+ indicates > 10−fold) | < 1000 | – |
| CCOC(=O)N1CCN(c2nc(-c3ccc(Cl)cc3)nc3ccc(OC(F)(F)F)cc23)CC1 [Example 223, Ethyl 4-(2-(4-chlorophenyl)-6-(trifluoromethoxy)quinazolin-4-yl)piperazine-1-carboxylate] | − (− indicates ≦ 10−fold) | > 1000 | – |
| CN1CCN(c2nc(-c3ccc(C(C)(C)C)cc3)nc3ccccc23)CC1 [Example 109, 2-(4-tert-Butylphenyl)-4-(4-methylpiperazin-1-yl)quinazoline] | + (+ indicates > 10−fold) | < 1000 | – |
| C[C@@H]1CN(c2nc(-c3ccccc3Cl)nc3ccccc23)C[C@H](C)N1C [Example 78, 2-(2-Chlorophenyl)-4-((3S,5R)-3,4,5-trimethylpiperazin-1-yl)quinazoline] | − (− indicates ≦ 10−fold) | < 1000 | – |
| CN1CCN(c2nc(-c3ccc(OC(F)(F)F)cc3)nc3ccccc23)CC1 [Example 142, 4-(4-Methylpiperazin-1-yl)-2-(4-trifluoromethoxyphenyl)quinazoline] | − (− indicates ≦ 10−fold) | < 1000 | – |
| COc1ccc2c(N3CCCC3)nc(C3CCCCC3)nc2c1 [Example 159, 2-Cyclohexyl-7-methoxy-4-(pyrrolidin-1-yl)quinazoline] | + (+ indicates > 10−fold) | > 1000 | – |
| CC(C)(C)c1ccc(Nc2nc(-c3ccc(C(F)(F)F)cc3)nc3ccccc23)cc1 [Example 46, (4-tert-Butylphenyl)-[2-(4-trifluoromethylphenyl)quinazolin-4-yl]amine] | + (+ indicates > 10−fold) | < 1000 | – |
| CC1(C)C(C(=O)N2CCN(c3nc(-c4ccccc4Cl)nc4ccccc34)CC2)C1(C)C [Example 100, (4-(2-(2-Chlorophenyl)quinazolin-4-yl)piperazin-1-yl)(2,2,3,3-tetramethylcyclopropyl)methanone] | − (− indicates ≦ 10−fold) | – | > 1000 |
| CCc1ccc2nc(-c3ccccc3Cl)nc(N3CCN(C)CC3)c2c1 [Example 173, 2-(2-Chlorophenyl)-6-ethyl-4-(4-methylpiperazin-1-yl)quinazoline] | + (+ indicates > 10−fold) | < 1000 | – |
| CC(C)(C)c1ccc(-c2nc(NCC3CC3)c3ccccc3n2)cc1 [Example 130, 2-(4-tert-Butylphenyl)quinazolin-4-yl cyclopropylmethylamine] | + (+ indicates > 10−fold) | < 1000 | – |
| CC(C)NC(=O)N1CCN(c2nc(-c3ccccc3Cl)nc3ccccc23)CC1 [Example 90, 4-(2-(2-Chlorophenyl)quinazolin-4-yl)-N-isopropylpiperazine-1-carboxamide] | − (− indicates ≦ 10−fold) | – | > 1000 |
| Clc1ccccc1-c1nc(NCCCN2CCOCC2)c2ccccc2n1 [Example 192, 2-(2-Chlorophenyl)-N-(3-morpholinopropyl)quinazolin-4-amine] | − (− indicates ≦ 10−fold) | > 1000 | – |
| c1ccc(-c2nc(N3CCCCC3)c3ccccc3n2)cc1 [Example 52, 2-Phenyl-4-(piperidin-1-yl)quinazoline] | − (− indicates ≦ 10−fold) | > 1000 | – |
